Here are results for 2 compounds from ChEMBL document CHEMBL4630904, “Data for DCP probe BI 207127” (2021).

As usually defined, the IC50 is the midpoint of a concentration-inhibition curve.

Calls of active or inactive are those of the source. The rule behind the calls is not given here. Where only a bound is given, the exact number is not on record here.

In series [1] the target is RNA-directed RNA polymerase (Hepacivirus hominis, UniProt O39930). The series can be described thus: Enzymatic assay with HCV NS5B polymerase D21.
Series [2] deals with Sodium-dependent dopamine transporter (Homo sapiens) (UniProt Q01959). The series can be described thus: DATRANS/HUM Eurofins SafetyScreen44 (BI). The note with it: Compound concentration 10.0 uM.
Series [3] has as its target Muscarinic acetylcholine receptor M3 (Homo sapiens) (UniProt P20309). The series can be described thus: M3/H Eurofins SafetyScreen44 (BI). The following applies: Compound concentration 10.0 uM.
Another series deals with hERG (KCNH2) (Homo sapiens, UniProt Q12809). The series is described as follows: HERG_DOFETILIDE Eurofins SafetyScreen44 (BI). More on the design: mode of action inhibitor. The note with it: probe [3H] Dofetilide, compound concentration 10 uM, read-out: % Ctrl.
Series [4] deals with Muscarinic acetylcholine receptor M2 (Homo sapiens) (UniProt P08172). The series can be described thus: M2/H Eurofins SafetyScreen44 (BI). The note with it: filed as antagonist, Compound concentration 10.0 uM.
Series [5] has as its target Endothelin-1 receptor (Homo sapiens) (UniProt P25101). The series can be described thus: ETA/H Eurofins SafetyScreen44 (BI). The following applies: Compound concentration 10.0 uM.
The target of series [6] is MAO-A (amine oxidase [flavin-containing] A) (Rattus norvegicus, UniProt P21396). The series is described as follows: MAO-A_ANTAG Eurofins SafetyScreen44 (BI). Also on record: mode of action antagonist; scale not given: the % may be the effect or the level left. The note with it: compound concentration 10 uM, read-out: % Ctrl.
The target in series [7] is D(1A) dopamine receptor (Homo sapiens) (UniProt P21728). The series can be described thus: D1/H Eurofins SafetyScreen44 (BI). The following applies: filed as antagonist, Compound concentration 10.0 uM.
The target in series [8] is Delta-type opioid receptor (Homo sapiens) (UniProt P41143). The series is described as follows: DELTA2/H Eurofins SafetyScreen44 (BI). The note with it: Compound concentration 10.0 uM.
Series [9] concerns the target Histamine H2 receptor (Homo sapiens) (UniProt P25021). The series can be described thus: H2/APT/HS Eurofins SafetyScreen44 (BI). The following applies: filed as antagonist, Compound concentration 10.0 uM.
For series [10], the target named is Kappa-type opioid receptor (Homo sapiens) (UniProt P41145). The series is described as follows: KAPPA(KOP)_HU Eurofins SafetyScreen44 (BI). The note with it: Compound concentration 10.0 uM.
The target in series [11] is Histamine H1 receptor (Homo sapiens) (UniProt P35367). The series can be described thus: H1/PYRIL/HS Eurofins SafetyScreen44 (BI). The following applies: Compound concentration 10.0 uM.
Series [12] has as its target 5-hydroxytryptamine receptor 1B (Homo sapiens) (UniProt P28222). The series can be described thus: 5HT1B(H) Eurofins SafetyScreen44 (BI). The following applies: filed as antagonist, Compound concentration 10.0 uM.
Series [13] concerns the target Mu-type opioid receptor (Homo sapiens) (UniProt P35372). The series can be described thus: MU/H Eurofins SafetyScreen44 (BI). The following applies: Compound concentration 10.0 uM.
Series [14] addresses Prostaglandin G/H synthase 2 (Homo sapiens) (UniProt P35354). The series is described as follows: COX-2 Eurofins SafetyScreen44 (BI). The following applies: Compound concentration 10.0 uM.
Series [15] concerns the target Voltage-dependent L-type calcium channel subunit alpha-1C (dihydropyridine site) (Rattus norvegicus, UniProt P22002). The series is described as follows: CA+/DHPSI/R Eurofins SafetyScreen44 (BI). Also on record: mode of action inhibitor. The following applies: rat brain, probe [3H](+)PN200-110, compound concentration 10 uM, read-out: % Ctrl.
In series [16] the target is 5-hydroxytryptamine receptor 2B (Homo sapiens) (UniProt P41595). The series is described as follows: 5HT2B/H AG Eurofins SafetyScreen44 (BI). The note with it: filed as agonist, Compound concentration 10.0 uM.
For series [17], the target named is Angiotensin-converting enzyme (Homo sapiens) (UniProt P12821). The series is described as follows: ACE(HU_AMTCH400) Eurofins SafetyScreen44 (BI). The following applies: Compound concentration 10.0 uM.
For series [18], the target named is D(2) dopamine receptor (Homo sapiens) (UniProt P14416). The series can be described thus: D2SH_AGON Eurofins SafetyScreen44 (BI). The note with it: filed as agonist, Compound concentration 10.0 uM.
In series [19] the target is 5-hydroxytryptamine receptor 3A (Homo sapiens) (UniProt P46098). The series is described as follows: 5HT3/H Eurofins SafetyScreen44 (BI). The note with it: Compound concentration 10.0 uM.
For series [20], the target named is Glutamate receptor ionotropic, NMDA 2A (Rattus norvegicus) (UniProt Q00959). The series is described as follows: NMDA/R Eurofins SafetyScreen44 (BI). The following applies: Compound concentration 10.0 uM.
In series [21] the target is 5-hydroxytryptamine receptor 1A (Homo sapiens) (UniProt P08908). The series is described as follows: 5HT1A/H Eurofins SafetyScreen44 (BI). The note with it: Compound concentration 10.0 uM.
The target of series [22] is Androgen receptor (Homo sapiens) (UniProt P10275). The series can be described thus: ANDROGEN/H Eurofins SafetyScreen44 (BI). The following applies: Compound concentration 10.0 uM.
For series [23], the target named is Tyrosine-protein kinase Lck (Homo sapiens) (UniProt P06239). The series can be described thus: LCK_CE Eurofins SafetyScreen44 (BI). The note with it: Compound concentration 10.0 uM.
Series [24] addresses Cholecystokinin receptor type A (Homo sapiens) (UniProt P32238). The series can be described thus: CCKA/H Eurofins SafetyScreen44 (BI). The note with it: Compound concentration 10.0 uM.
The target in series [25] is Alpha-2A adrenergic receptor (Homo sapiens) (UniProt P08913). The series can be described thus: ALPHA2A/HU Eurofins SafetyScreen44 (BI). The note with it: Compound concentration 10.0 uM.
For series [26], the target named is Adenosine receptor A2a (Homo sapiens) (UniProt P29274). The series can be described thus: A2A/H Eurofins SafetyScreen44 (BI). The note with it: filed as antagonist, Compound concentration 10.0 uM.
Series [27] has as its target Glucocorticoid receptor (Homo sapiens) (UniProt P04150). The series can be described thus: GCORTICOID/H Eurofins SafetyScreen44 (BI). The following applies: Compound concentration 10.0 uM.
Series [28] deals with Sodium-dependent serotonin transporter (Homo sapiens) (UniProt P31645). The series is described as follows: SLC6A4/H Eurofins SafetyScreen44 (BI). The note with it: filed as antagonist, Compound concentration 10.0 uM.
Series [29] deals with Beta-2 adrenergic receptor (Homo sapiens) (UniProt P07550). The series can be described thus: BETA2/HUM Eurofins SafetyScreen44 (BI). The note with it: filed as antagonist, Compound concentration 10.0 uM.
The target in series [30] is 3',5'-cyclic-AMP phosphodiesterase 4D (Homo sapiens) (UniProt Q08499). The series is described as follows: PDE4D2 Eurofins SafetyScreen44 (BI). The note with it: Compound concentration 10.0 uM.
Series [31] deals with Neuronal acetylcholine receptor; alpha4/beta2 (Homo sapiens) (UniProt P17787+P43681). The series is described as follows: N_NEURO_A4B2 Eurofins SafetyScreen44 (BI). The series is classed as protein-complex assay. The note with it: filed as agonist, Compound concentration 10.0 uM.
For series [32], the target named is Gamma-aminobutyric acid receptor subunit alpha-1 (Rattus norvegicus) (UniProt P62813). The series is described as follows: BZD/CENTR/R Eurofins SafetyScreen44 (BI). The following applies: Compound concentration 10.0 uM.
In series [33] the target is Sodium channel regulatory subunit beta-1 (Rattus norvegicus) (UniProt Q00954). The series is described as follows: NA+/SITE2/R Eurofins SafetyScreen44 (BI). The following applies: Compound concentration 10.0 uM.
Series [34] addresses Sodium-dependent noradrenaline transporter (Homo sapiens) (UniProt P23975). The series can be described thus: NEUP/H Eurofins SafetyScreen44 (BI). The following applies: Compound concentration 10.0 uM.
Series [35] concerns the target Cannabinoid receptor 1 (Homo sapiens) (UniProt P21554). The series can be described thus: CB1(HU)_AGON Eurofins SafetyScreen44 (BI). The following applies: filed as agonist; Compound concentration 10.0 uM.
In series [36] the target is Alpha-1A adrenergic receptor (Homo sapiens) (UniProt P35348). The series is described as follows: ALPHA1AH_ANTAG Eurofins SafetyScreen44 (BI). The following applies: filed as antagonist, Compound concentration 10.0 uM.
Series [37] concerns the target Potassium voltage-gated channel subfamily V member 1 (Rattus norvegicus) (UniProt P97557). The series can be described thus: K+/VOLT/RA Eurofins SafetyScreen44 (BI). The note with it: Compound concentration 10.0 uM.
The target in series [38] is 5-hydroxytryptamine receptor 2A (Homo sapiens) (UniProt P28223). The series is described as follows: 5HT2AH_AGON Eurofins SafetyScreen44 (BI). The following applies: filed as agonist, Compound concentration 10.0 uM.
Series [39] has as its target Muscarinic acetylcholine receptor M1 (Homo sapiens) (UniProt P11229). The series can be described thus: M1/H Eurofins SafetyScreen44 (BI). The note with it: Compound concentration 10.0 uM.
Series [40] has as its target Beta-1 adrenergic receptor (Homo sapiens) (UniProt P08588). The series is described as follows: BETA1/HUM Eurofins SafetyScreen44 (BI). The note with it: Compound concentration 10.0 uM.
The target of series [41] is Vasopressin V1a receptor (Homo sapiens) (UniProt P37288). The series is described as follows: V1A/HUM Eurofins SafetyScreen44 (BI). The note with it: Compound concentration 10.0 uM.
Series [42] concerns the target cGMP-inhibited 3',5'-cyclic phosphodiesterase 3A (Homo sapiens) (UniProt Q14432). The series can be described thus: PDE3A Eurofins SafetyScreen44 (BI). The note with it: Compound concentration 10.0 uM.
For series [43], the target named is Cannabinoid receptor 2 (Homo sapiens) (UniProt P34972). The series can be described thus: CB2/PERIPH/H Eurofins SafetyScreen44 (BI). The note with it: Compound concentration 10.0 uM.
Series [44] addresses Prostaglandin G/H synthase 1 (Homo sapiens) (UniProt P23219). The series is described as follows: COX-1 Eurofins SafetyScreen44 (BI). The following applies: Compound concentration 10.0 uM.

Sequence of RNA-directed RNA polymerase (O39930 whole entry): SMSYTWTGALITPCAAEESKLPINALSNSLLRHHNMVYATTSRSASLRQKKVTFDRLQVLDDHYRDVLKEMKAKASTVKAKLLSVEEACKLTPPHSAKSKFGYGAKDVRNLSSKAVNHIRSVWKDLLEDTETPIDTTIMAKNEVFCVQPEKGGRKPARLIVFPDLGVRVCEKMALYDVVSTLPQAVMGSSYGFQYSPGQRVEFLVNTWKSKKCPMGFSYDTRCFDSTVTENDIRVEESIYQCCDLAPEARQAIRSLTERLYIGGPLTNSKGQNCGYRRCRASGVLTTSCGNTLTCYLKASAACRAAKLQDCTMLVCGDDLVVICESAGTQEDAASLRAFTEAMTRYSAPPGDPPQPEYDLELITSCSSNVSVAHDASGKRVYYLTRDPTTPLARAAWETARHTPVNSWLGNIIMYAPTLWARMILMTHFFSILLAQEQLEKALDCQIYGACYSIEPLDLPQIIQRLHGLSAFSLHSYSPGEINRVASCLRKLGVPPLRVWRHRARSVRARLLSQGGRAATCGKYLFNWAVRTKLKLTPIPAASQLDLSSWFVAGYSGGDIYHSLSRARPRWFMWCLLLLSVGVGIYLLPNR
Sequence of Sodium channel regulatory subunit beta-1 (Rattus norvegicus) (Q00954 whole entry): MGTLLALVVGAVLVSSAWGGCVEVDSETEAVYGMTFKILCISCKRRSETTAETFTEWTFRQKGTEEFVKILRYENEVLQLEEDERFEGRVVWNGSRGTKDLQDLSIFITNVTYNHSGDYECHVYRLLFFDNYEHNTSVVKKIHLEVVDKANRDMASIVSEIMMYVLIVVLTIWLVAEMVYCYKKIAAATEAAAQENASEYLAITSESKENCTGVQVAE
Sequence of Angiotensin-converting enzyme (Homo sapiens) (P12821 whole entry): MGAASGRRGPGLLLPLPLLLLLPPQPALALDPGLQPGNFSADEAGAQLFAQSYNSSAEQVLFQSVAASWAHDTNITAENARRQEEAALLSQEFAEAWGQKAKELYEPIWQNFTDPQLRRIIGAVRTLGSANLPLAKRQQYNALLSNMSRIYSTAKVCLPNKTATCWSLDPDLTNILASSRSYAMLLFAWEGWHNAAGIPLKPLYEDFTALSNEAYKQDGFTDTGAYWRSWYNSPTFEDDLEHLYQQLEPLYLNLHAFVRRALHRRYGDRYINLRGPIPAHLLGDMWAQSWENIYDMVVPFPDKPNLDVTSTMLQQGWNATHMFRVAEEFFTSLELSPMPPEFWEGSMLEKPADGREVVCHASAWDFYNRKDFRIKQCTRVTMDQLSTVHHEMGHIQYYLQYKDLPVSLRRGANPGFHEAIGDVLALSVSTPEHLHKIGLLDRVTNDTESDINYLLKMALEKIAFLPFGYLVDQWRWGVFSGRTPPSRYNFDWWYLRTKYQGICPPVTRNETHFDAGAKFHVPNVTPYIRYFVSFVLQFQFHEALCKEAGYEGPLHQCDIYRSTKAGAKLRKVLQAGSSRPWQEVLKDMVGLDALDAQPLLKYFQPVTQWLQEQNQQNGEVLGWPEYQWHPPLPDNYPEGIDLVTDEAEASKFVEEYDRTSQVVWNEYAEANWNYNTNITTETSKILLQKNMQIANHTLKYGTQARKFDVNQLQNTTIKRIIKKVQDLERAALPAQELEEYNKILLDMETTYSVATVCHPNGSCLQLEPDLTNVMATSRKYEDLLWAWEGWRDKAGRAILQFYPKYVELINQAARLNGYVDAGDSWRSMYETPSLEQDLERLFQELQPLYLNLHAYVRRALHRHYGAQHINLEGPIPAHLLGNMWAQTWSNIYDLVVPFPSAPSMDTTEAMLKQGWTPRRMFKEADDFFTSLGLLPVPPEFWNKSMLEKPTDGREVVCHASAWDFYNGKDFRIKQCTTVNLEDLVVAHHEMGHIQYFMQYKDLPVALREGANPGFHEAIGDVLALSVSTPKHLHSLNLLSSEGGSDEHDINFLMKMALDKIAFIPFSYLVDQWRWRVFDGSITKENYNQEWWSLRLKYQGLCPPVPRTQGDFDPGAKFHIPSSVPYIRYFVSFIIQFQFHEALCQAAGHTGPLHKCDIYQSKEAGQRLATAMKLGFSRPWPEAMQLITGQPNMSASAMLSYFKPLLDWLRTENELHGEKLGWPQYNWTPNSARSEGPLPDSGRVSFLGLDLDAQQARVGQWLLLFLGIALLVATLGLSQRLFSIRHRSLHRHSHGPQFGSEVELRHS
Sequence of Muscarinic acetylcholine receptor M1 (Homo sapiens) (P11229 whole entry): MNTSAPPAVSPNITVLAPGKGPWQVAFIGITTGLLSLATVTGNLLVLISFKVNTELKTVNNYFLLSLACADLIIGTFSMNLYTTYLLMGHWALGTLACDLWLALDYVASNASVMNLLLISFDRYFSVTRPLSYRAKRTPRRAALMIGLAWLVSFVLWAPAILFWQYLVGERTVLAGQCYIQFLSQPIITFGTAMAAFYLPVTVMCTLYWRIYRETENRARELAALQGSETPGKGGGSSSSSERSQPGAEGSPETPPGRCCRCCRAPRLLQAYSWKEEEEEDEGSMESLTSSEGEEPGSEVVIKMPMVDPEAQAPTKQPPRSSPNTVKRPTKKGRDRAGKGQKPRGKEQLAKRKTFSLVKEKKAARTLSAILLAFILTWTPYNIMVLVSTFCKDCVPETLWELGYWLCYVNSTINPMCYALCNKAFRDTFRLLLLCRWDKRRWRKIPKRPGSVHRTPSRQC
Sequence of Beta-2 adrenergic receptor (Homo sapiens) (P07550 whole entry, looked up): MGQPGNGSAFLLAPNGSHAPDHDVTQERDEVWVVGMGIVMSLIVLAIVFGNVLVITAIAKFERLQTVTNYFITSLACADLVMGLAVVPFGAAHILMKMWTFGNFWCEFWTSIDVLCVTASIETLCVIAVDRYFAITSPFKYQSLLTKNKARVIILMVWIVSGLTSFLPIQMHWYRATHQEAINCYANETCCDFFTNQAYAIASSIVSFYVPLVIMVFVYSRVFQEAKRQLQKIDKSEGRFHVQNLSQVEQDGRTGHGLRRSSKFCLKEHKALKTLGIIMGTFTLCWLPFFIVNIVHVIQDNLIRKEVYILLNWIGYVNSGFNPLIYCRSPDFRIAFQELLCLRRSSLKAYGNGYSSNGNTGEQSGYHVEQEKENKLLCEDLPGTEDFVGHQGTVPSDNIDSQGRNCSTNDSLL
Sequence of Glutamate receptor ionotropic, NMDA 2A (Rattus norvegicus) (Q00959 23-1464 limits assumed): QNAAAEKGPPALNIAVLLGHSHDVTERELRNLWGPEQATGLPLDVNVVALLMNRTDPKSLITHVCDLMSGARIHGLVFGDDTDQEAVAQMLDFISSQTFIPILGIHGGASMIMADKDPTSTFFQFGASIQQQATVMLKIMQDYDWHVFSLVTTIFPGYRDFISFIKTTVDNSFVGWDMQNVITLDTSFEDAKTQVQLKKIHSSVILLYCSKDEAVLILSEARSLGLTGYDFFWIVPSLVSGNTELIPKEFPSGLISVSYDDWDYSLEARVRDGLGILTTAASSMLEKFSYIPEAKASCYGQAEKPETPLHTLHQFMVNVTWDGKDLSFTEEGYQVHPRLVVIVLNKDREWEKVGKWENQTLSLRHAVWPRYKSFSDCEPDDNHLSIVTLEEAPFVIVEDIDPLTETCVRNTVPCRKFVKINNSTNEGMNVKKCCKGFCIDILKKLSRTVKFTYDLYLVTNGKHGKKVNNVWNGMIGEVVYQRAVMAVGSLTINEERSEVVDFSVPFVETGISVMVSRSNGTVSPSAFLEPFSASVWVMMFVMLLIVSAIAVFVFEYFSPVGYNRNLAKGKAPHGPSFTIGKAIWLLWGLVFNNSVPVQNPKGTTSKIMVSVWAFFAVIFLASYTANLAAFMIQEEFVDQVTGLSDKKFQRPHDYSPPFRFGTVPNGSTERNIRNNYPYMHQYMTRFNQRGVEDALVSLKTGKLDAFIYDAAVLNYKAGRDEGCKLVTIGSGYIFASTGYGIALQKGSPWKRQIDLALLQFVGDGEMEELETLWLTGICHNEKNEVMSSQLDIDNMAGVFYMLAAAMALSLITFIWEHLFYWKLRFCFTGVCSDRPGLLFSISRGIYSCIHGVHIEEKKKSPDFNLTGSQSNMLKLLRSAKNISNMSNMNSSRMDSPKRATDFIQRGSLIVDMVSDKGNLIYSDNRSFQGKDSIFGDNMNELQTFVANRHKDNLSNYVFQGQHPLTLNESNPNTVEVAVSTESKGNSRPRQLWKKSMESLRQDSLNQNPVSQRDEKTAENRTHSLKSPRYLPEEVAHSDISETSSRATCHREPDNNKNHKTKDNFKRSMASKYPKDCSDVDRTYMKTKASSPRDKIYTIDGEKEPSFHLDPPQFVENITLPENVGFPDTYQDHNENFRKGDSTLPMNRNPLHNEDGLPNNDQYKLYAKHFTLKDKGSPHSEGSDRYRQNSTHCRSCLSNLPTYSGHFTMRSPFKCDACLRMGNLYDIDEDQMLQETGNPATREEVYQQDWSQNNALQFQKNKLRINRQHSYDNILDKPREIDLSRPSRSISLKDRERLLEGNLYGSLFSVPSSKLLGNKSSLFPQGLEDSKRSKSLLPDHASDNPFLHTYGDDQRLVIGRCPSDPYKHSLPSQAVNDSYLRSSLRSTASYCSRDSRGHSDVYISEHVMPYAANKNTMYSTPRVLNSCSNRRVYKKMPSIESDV
Sequence of Adenosine receptor A2a (Homo sapiens) (P29274 whole entry): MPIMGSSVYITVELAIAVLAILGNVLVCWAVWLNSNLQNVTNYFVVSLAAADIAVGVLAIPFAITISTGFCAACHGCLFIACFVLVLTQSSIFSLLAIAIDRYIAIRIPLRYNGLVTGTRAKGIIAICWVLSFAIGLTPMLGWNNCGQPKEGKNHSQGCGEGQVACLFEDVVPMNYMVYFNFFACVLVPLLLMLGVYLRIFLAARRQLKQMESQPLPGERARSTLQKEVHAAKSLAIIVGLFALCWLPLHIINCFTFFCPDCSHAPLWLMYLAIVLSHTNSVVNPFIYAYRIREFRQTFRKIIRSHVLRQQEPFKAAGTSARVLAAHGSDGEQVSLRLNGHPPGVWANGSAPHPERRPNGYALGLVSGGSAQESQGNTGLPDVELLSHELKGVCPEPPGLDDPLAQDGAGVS

`Cn1c(C2(NC(=O)c3ccc(NCC4CCCCC4)nc3)CCC2)nc2ccc(/C=C/C(=O)O)cc21` [BI 7656]: the IC50 in series [1] was > 5000 nM (not active).

Take `Cn1c(C2(NC(=O)c3ccc4c(C5CCCC5)c(-c5ncc(Br)cn5)n(C)c4c3)CCC2)nc2ccc(/C=C/C(=O)O)cc21` [DELEOBUVIR]: the residual activity was 66% in series [2]; 101% in [3]; 104% in series [4]; 107% in series [5]; 67% in series [7]; 47% in series [8]. Moreover, the residual activity is 108% in [9]; 59% in [10]; 81% in series [11]; 97% in series [12]; 83% in series [13]; 85% in [14]. Moreover, the residual activity is 140% in series [16]; 109% in series [17]; 86% in series [18]; 105% in [19]; 83% in [20]; 116% in series [21]. Also, the residual activity in [22] is 107%; in series [23] it was 117%; in series [24], 12%; in [25], 93%; in series [26] it was 133%; in [27] it was 81%. Besides, the residual activity in [28] is 117%; in [29], 100%; in series [30] it was 130%; in [31], 111%; in series [32], 148%; in [33], 79%. In addition, the residual activity in [34] is 76%; in series [35], 72%; in series [36], 100%; in series [37], 107%; in series [38] it was 67%; in [39] it was 107%. In addition, the residual activity in [40] is 96%; in [41], 97%; in series [42] it was 140%; in series [43], 67%; in series [44], 73%. The results for the activity at 10 µM (at hERG (KCNH2); in [6]; in series [15]) were 68% (not active), 92% (not active) and 105% (not active), respectively. Further, the IC50 in series [1] is 19 nM (active).
